Source: US12590130B2, “Bipartite molecules and uses thereof in treating diseases associated with abnormal protein aggregates” (ACADEMIA SINICA, priority 2014, dated 2026)

Experiments:
APP×PS1 transgenic mice [1] = experiment: Cytometric bead array for IL-6 and IL-1β in brain of APP×PS1 mice; assay type: in vivo, mouse; details: cortex, 8 month-old Tg mice
Description: (§1) APP×PS1 transgenic mice (B6C3-Tg (APPswe,PSEN1dE9) 85Dbo/Mmjax, purchased from Jackson Laboratories (USA), were bred and genotyped following the vendor's protocols. Borchelt et al., Neuron (1996) 17:1005-13; and Jankowsky et al., Biomol Eng (2001) 17:157-65. The mice had access to food and water ad libitum and were kept on a 12:12 h light-dark cycle. PEI and R8A β 25-35-PEI were dissolved in 100 mM NaH2PO4/138 mM KCl (pH 5) to a final concentration of 400 μM. For intranasal administration, 2.5 μL PEI or R8-A β (25-35)-PEI was given to each nostril of one mouse when they were […] for six days/week until they were 8 months of age. Mice were then tested with a Morris water maze. Treatment were resumed after a 6-week break for the water maze test, and continued until the mice were 12 months of age.
A cytometric bead array (CBA, mouse inflammation kit; BD Biosciences) was used to quantitatively measure cytokine expression levels in the control and treated mouse brain tissue lysates. […] This method quantifies soluble particles, in this case, cytokines, using a fluorescence-based detection mechanism. The beads, coated with the desired cytokine, IL-6 and IL-1B, reacted with the test lysates and standards, to which fluorescence dyes were then added. The assay was performed according to the manufacturer's instructions and analyzed on the FACS Calibur (Becton Dickinson). […]

APP×PS1 transgenic mice [2] = experiment: Thioflavin S staining of amyloid plaques in APP×PS1 mice; assay type: in vivo, mouse; details: vs PEI
APP×PS1 transgenic mice [3] = experiment: Morris water maze in APP×PS1 transgenic mice; assay type: in vivo, mouse; details: vs PEI
Excerpt: FIG. 12. R8-Aβ(25-35)-PEI improved memory as measured by the Morris water maze assay. Panel A: Plot of the escape latency period of wild type (WT) and APP×PS1 transgenic (Tg) mice of 8 months of age treated with either PEI or R8-Aβ(25-35) peptide from the age of 4 months to 8 months. […] Panel B: Percentage of time of WT or Tg mice treated as indicated spent in swimming in the target quadrant where the hidden platform used to be. The times of the indicated mice crossing the target quadrant. […] Panel C: The percentage of time of the WT or Tg mice as indicated crossing the target quadrant. Ten mice per group were used in this study. The statistics were performed with two way ANOVA with Fisher's LSD posthoc analysis. N=10/group *<0.05; ***<0.0005; ****<0.0001
as §1
The maze was made of white opaque plastic with a diameter of 120 cm and contained 40 cm high walls. It was filled with milk/water at 25° C. […] The path length and escape latencies were recorded (n=10 per group). Acquisition data, such as time taken to reach the escape platform and path length were analyzed by two-way repeated measures ANOVA. […] The platform was removed from the maze and animals were allowed to swim freely for 90 s and the swimming path was recorded and analyzed.

[4] = Solubility of therapeutic peptides; assay type: physicochemical; details: DMEM/10% FBS
Description: In this study, the rational design was tested for HD. Several bipartite therapeutic peptides containing 8 consecutive arginines (8R) attached to a stretch of consecutive glutamines (polyQ) were synthesized and their biological activity of decreasing the aggregation propensity of the mHtt protein was investigated. The length of the polyQ of these bipartite peptides was 5 (8R5Q), 10 (8R10Q), 15 (8R15Q) or 20 (8R20Q) (Table 2).

109QmHtt aggregates = experiment: Co-localization of TAMRA-labeled peptide with 109QmHtt aggregates in Neuro2a cells; assay type: cell-based; details: Neuro2a cells expressing 109QmHtt
Description: FIG. 3. Diagrams showing the co-localization of tested bipartite peptides with the 109QmHtt aggregates. Panel A: Structure of TAMRA-labeled 8R10Q used in this study. Panel B: Epifluorescence micrographs of Neuro2a cells expressing 109QmHtt treated with TAMRA-8R10Q (8R10Q) at various time points. Note the co-localization of 8R10Q and 109QmHttGFP aggregates (GFP) from 8-24 hours (arrows). Scale bar: 10 μm. Panel C: TIRF micrographs of the Neuro2a expressing 109QmHtt treated with water or peptides as indicated at various time points. Note the decrease in aggregate size in 8R10Q and 8R15Q-treated cells. Panel D: Quantitation of the size of individual aggregates in Neuro2a at 8 hours (left) and 24 hours (right) after peptide treatment. […] Panel E: Quantitation of the number of aggregates in 20 Neuro2a cells at 12 hours (left) and 24 hours (right) after peptide treatment. Both the 8R10Q and 8R15Q increased the number of aggregates. Statistics performed with one way ANOVA. **p<0.01; ***p<0.001.
The ability of 8R10Q to bind to the 109QmHtt was examined by determining its co-localization with the 109QmHtt aggregates. The 8R10Q peptide was labeled with carboxytetramethylrhodamine (TAMRA) dye (FIG. 3, panel A), and added into Neuro2a cells expressing 25QHtt or 109QmHtt.

Chain of 109QmHtt aggregates (P42858 with tags, fused parts or gaps limits assumed): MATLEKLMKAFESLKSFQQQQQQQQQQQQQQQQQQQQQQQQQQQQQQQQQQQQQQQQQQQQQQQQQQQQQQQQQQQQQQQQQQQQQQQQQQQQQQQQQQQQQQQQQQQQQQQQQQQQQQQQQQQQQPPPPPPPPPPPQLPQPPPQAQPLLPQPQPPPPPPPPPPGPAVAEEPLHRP

Substance | level of IL-1β (APP×PS1 transgenic mice [1]) | level of IL-6 (APP×PS1 transgenic mice [1]) | number of plaques (APP×PS1 transgenic mice [2]; cortex and hippocampus, 8 month-old) | percentage of the plaque areas (APP×PS1 transgenic mice [2]; cortex and hippocampus) | total area of amyloid plaques (APP×PS1 transgenic mice [2]; cortex and hippocampus) | average size of individual plaques (APP×PS1 transgenic mice [2]) | escape latency / learning to find hidden platform (APP×PS1 transgenic mice [3]; Tg mice 8 months of age, intranasal) | time spent in the target quadrant (probe test) (APP×PS1 transgenic mice [3]; Tg mice) | learning curve of finding the hidden platform (APP×PS1 transgenic mice [3]; wild-type mice) | Solubility (DMEM/10% FBS) [4] | co-localization with 109QmHtt aggregates (109QmHtt aggregates)
RRRRRRRRGSNKGAIIGLM-PEI (not fully specified; PEI conjugate) [R8-Aβ(25-35)-PEI] | effectively decreased | effectively decreased | significantly reduced | significantly decreased | correspondingly decreased | failed to reach statistical significance | significant shortening of the latency | increased the time of Tg mice in the target quadrant | no clear difference in the learning curve | – | –
TAMRA-NH-(R)8-W-D-(Q)10-CONH2 ({TAMRA}-RRRRRRRRWDQQQQQQQQQQ-NH2) [TAMRA-8R10Q] | – | – | – | – | – | – | – | – | – | Soluble | co-localized with the aggregates
